From patent US12324802B2, “Modulators of cystic fibrosis transmembrane conductance regulator” (Vertex Pharmaceuticals Incorporated, priority 2020, dated 2025) come the findings set out here.

The assay has as its target T1, CFTR (F508del/MF-HBE cells) (Homo sapiens, UniProt P13569, DEL508-508).
T1 construct: human bronchial epithelial (HBE) cells derived from CF subjects heterozygous for F508del and a minimal function CFTR mutation; endogenous in cells; host or cells: primary human bronchial epithelial cells from CF subjects (F508del/MF genotype)
Put plainly: Ussing chamber assay of CFTR-mediated short-circuit currents (identification of potentiator compounds). The note with it: CFTR-mediated ISC in F508del/MF-HBE cells; incubated 18-24 hours at 37° C. with 10 μM (14S)-8-[3-(2-{dispiro[2.0.2.1]heptan-7-yl}ethoxy)-1H-pyrazol-1-yl]-...-2,2,4-trione, 20% human serum. The assay is classed as cell-based. An outline of the steps:
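F508del/minimal-function HBE cultures grown at air-liquid interface were incubated for 18–24 h at 37 °C with potentiator plus 10 μM corrector, in 20% human serum, and compounds stayed present during recording. Transepithelial ISC was recorded at 0 mV and 37 °C with 30 μM apical amiloride. CFTR current was taken as the peak response to 20 μM forskolin minus the steady state after a 20 μM inhibitor cocktail.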

T1 sequence (P13569 with tags, fused parts or gaps DEL508-508): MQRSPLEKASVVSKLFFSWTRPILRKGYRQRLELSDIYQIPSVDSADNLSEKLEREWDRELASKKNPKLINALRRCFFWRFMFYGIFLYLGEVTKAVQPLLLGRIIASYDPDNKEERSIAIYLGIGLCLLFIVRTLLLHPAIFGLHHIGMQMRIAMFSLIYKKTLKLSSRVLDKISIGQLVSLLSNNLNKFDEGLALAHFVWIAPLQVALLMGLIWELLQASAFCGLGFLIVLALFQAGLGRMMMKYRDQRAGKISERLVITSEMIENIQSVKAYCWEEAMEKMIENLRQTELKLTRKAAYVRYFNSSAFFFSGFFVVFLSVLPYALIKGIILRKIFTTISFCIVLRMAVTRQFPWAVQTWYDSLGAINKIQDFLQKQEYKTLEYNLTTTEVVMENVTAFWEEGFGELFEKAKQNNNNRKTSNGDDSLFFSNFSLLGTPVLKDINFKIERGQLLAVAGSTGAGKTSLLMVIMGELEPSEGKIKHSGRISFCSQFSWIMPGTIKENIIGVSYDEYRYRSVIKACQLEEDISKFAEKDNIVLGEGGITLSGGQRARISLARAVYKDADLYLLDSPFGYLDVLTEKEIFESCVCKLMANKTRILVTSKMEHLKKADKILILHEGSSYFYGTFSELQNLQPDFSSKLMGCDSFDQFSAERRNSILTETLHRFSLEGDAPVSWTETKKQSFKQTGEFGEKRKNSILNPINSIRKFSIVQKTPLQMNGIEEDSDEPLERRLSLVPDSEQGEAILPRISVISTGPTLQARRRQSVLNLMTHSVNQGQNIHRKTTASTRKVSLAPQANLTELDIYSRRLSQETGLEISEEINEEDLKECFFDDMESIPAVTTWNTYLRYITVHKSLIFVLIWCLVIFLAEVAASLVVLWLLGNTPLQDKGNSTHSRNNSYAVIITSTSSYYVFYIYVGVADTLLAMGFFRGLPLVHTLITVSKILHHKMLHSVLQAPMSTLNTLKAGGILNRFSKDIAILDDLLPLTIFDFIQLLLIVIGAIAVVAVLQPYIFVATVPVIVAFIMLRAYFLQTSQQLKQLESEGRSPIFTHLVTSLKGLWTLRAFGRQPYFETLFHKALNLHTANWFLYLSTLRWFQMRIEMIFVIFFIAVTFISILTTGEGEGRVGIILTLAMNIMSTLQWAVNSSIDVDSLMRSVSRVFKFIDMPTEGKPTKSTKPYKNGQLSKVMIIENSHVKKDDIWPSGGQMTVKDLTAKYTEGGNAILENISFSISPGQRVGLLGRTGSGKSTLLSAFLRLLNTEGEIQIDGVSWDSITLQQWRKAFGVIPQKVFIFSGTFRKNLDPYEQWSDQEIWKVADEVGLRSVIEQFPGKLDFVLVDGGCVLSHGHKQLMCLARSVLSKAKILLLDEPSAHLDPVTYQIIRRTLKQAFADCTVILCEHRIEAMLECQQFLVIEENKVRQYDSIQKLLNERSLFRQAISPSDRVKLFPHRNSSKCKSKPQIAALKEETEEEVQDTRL

As for `Nc1cc(C(F)(F)F)c2nc1-c1nnc(o1)/C(C(F)(F)F)=C\CCCC[C@@H]1CCCN21` [Compound 10, (6E,12R)-6,18-bis(trifluoromethyl)-22-oxa-3,4,16,21-tetraazatetracyclo[15.3.1.12,5.012,16]docosa-1(21),2,4,6,17,19-hexaen-20-amine], the EC50 was more than 1000 nM.

Turning to `CNc1cc(C(F)(F)F)c2nc1-c1nnc(o1)[C@@](O)(C(F)(F)F)CCCCC[C@@H]1CCCN21` [Compound 13, (6R,12R)-20-(methylamino)-6,18-bis(trifluoromethyl)-22-oxa-3,4,16,21-tetraazatetracyclo[15.3.1.12,5.012,16]docosa-1(21),2,4,17,19-pentaen-6-ol], the EC50 is less than 500 nM.

Turning to `CCNc1cc(C(F)(F)F)c2nc1-c1nnc(o1)[C@@](O)(C(F)(F)F)CCCCC[C@@H]1CCCN21` [Compound 14, (6R,12R)-20-(ethylamino)-6,18-bis(trifluoromethyl)-22-oxa-3,4,16,21-tetraazatetracyclo[15.3.1.12,5.012,16]docosa-1(21),2,4,17,19-pentaen-6-ol], the EC50 is less than 500 nM.

Consider `CNc1cc(C(F)(F)F)c2nc1-c1nnc(o1)[C@](O)(C(F)(F)F)CCCCC[C@@H]1CCCN21` [Compound 15, (6S,12R)-20-(methylamino)-6,18-bis(trifluoromethyl)-22-oxa-3,4,16,21-tetraazatetracyclo[15.3.1.12,5.012,16]docosa-1(21),2,4,17,19-pentaen-6-ol], for which the half-maximal effective concentration (EC50) was more than 1000 nM.

In the case of `CCNc1cc(C(F)(F)F)c2nc1-c1nnc(o1)[C@](O)(C(F)(F)F)CCCCC[C@@H]1CCCN21` [Compound 16, (6S,12R)-20-(ethylamino)-6,18-bis(trifluoromethyl)-22-oxa-3,4,16,21-tetraazatetracyclo[15.3.1.12,5.012,16]docosa-1(21),2,4,17,19-pentaen-6-ol], the EC50 is more than 1000 nM.

With `Nc1cc(C(F)(F)F)c2nc1-c1nnc(o1)C(O)(C(F)(F)F)CCCCC1CCCN21` (stereo not shown) [Compound 17, 19-amino-6,17-bis(trifluoromethyl)-21-oxa-3,4,15,20-tetraazatetracyclo[14.3.1.12,5.011,15]henicosa-1(20),2,4,16,18-pentaen-6-ol], the EC50 is less than 500 nM.

On to `Nc1cc(C(F)(F)F)c2nc1-c1nnc(o1)C(O)(C(F)(F)F)CCCCC1CCCN21` (stereo not shown) [Compound 18, 19-amino-6,17-bis(trifluoromethyl)-21-oxa-3,4,15,20-tetraazatetracyclo[14.3.1.12,5.011,15]henicosa-1(20),2,4,16,18-pentaen-6-ol], for which the EC50 is less than 500 nM.

For `Nc1cc(C(F)(F)F)c2nc1-c1nnc(o1)C(=NO)CCCCC[C@@H]1CCCN21` [Compound 31, (12R)-6-(hydroxyimino)-18-(trifluoromethyl)-22-oxa-3,4,16,21-tetraazatetracyclo[15.3.1.12,5.012,16]docosa-1(21),2,4,17,19-pentaen-20-amine], the EC50 was less than 500 nM.

Regarding `Nc1cc(C(F)(F)F)c2nc1-c1nnc(o1)C(=O)CCCCC[C@@H]1CCCN21` [Compound 36, (12R)-20-amino-18-(trifluoromethyl)-22-oxa-3,4,16,21-tetraazatetracyclo[15.3.1.12,5.012,16]docosa-1(21),2,4,17,19-pentaen-6-one], the half-maximal effective concentration (EC50) was less than 500 nM.

Turning to `CN1CCCCCCC(=O)C2=NN=C(O2)c2nc1c(C(F)(F)F)cc2N` [Compound 58, 17-amino-13-methyl-15-(trifluoromethyl)-19-oxa-3,4,13,18-tetrazatricyclo[12.3.1.12,5]nonadeca-1(18),2,4,14,16-pentaen-6-one], the EC50 is less than 500 nM.

As for `Nc1cc(C(F)(F)F)c2nc1-c1nnc(o1)[C@](O)(C(F)(F)F)c1cc(ccc1F)CCC[C@@H]1CCCN21` [Compound 59, (6S,15R)-23-amino-8-fluoro-6,21-bis(trifluoromethyl)-26-oxa-3,4,19,24-tetraazapentacyclo[18.3.1.12,5.17,11.015,19]hexacosa-1(24),2,4,7(25),8,10,20,22-octaen-6-ol], the EC50 is less than 500 nM.

With `Nc1cc(C(F)(F)F)c2nc1-c1nnc(o1)[C@@](O)(C(F)(F)F)c1cc(ccc1F)CCC[C@@H]1CCCN21` [Compound 60, (6R,15R)-23-amino-8-fluoro-6,21-bis(trifluoromethyl)-26-oxa-3,4,19,24-tetraazapentacyclo[18.3.1.12,5.17,11.015,19]hexacosa-1(24),2,4,7(25),8,10,20,22-octaen-6-ol], the EC50 was less than 500 nM.

With `Nc1cc(C(F)(F)F)c2nc1-c1nnc(o1)-c1c(O)cccc1CCCC[C@@H]1CCCN21` [Compound 134, (16R)-24-amino-22-(trifluoromethyl)-26-oxa-3,4,20,25-tetraazapentacyclo[19.3.1.12,5.06,11.016,20]hexacosa-1(25),2,4,6(11),7,9,21,23-octaen-7-ol], the half-maximal effective concentration (EC50) was more than 1000 nM.

For `CC1(C)CC2CCCc3ccc(F)c(c3)C(O)(C(F)(F)F)C3=NN=C(O3)c3nc(c(C(F)(F)F)cc3N)N2C1` (stereo not shown) [Compound 135, 23-amino-8-fluoro-17,17-dimethyl-6,21-bis(trifluoromethyl)-26-oxa-3,4,19,24-tetraazapentacyclo[18.3.1.12,5.17,11.015,19]hexacosa-1(24),2,4,7(25),8,10,20,22-octaen-6-ol], the EC50 is less than 500 nM.

For the molecule `CC1(C)CC2CCCc3ccc(F)c(c3)C(O)(C(F)(F)F)C3=NN=C(O3)c3nc(c(C(F)(F)F)cc3N)N2C1` (stereo not shown) [Compound 136, 23-amino-8-fluoro-17,17-dimethyl-6,21-bis(trifluoromethyl)-26-oxa-3,4,19,24-tetraazapentacyclo[18.3.1.12,5.17,11.015,19]hexacosa-1(24),2,4,7(25),8,10,20,22-octaen-6-ol], the EC50 is less than 500 nM.

For `Nc1cc(Br)c2nc1-c1nnc(o1)C(O)(C(F)(F)F)CCCCC[C@@H]1CCCN21` (stereo partly drawn) [Compound 144, (12R)-20-amino-18-bromo-6-(trifluoromethyl)-22-oxa-3,4,16,21-tetraazatetracyclo[15.3.1.12,5.012,16]docosa-1(21),2,4,17,19-pentaen-6-ol], the half-maximal effective concentration (EC50) is less than 500 nM.

As for `Nc1cc(Sc2ccc(OC(F)(F)F)cc2)c2nc1-c1nnc(o1)C(O)(C(F)(F)F)CCCCC[C@@H]1CCCN21` (stereo partly drawn) [Compound 146, (12R)-20-amino-18-{[4-(trifluoromethoxy)phenyl]sulfanyl}-6-(trifluoromethyl)-22-oxa-3,4,16,21-tetraazatetracyclo[15.3.1.12,5.012,16]docosa-1(21),2,4,17,19-pentaen-6-ol], the EC50 was less than 500 nM.

For `Nc1cc(C(F)(F)F)c2nc1-c1nnc(o1)C(O)(C(F)(F)F)CCCOC[C@@H]1CCCN21` (stereo partly drawn) [Compound 147, (12S)-20-amino-6,18-bis(trifluoromethyl)-10,22-dioxa-3,4,16,21-tetraazatetracyclo[15.3.1.12,5.012,16]docosa-1(21),2,4,17,19-pentaen-6-ol], the EC50 was less than 500 nM.

On to `Nc1cc(C(F)(F)F)c2nc1-c1nnc(o1)[C@@](O)(C(F)(F)F)CCCCCC(C(=O)N1CCCC1)N2` (stereo partly drawn) [Compound 154, [(6R)-17-amino-6-hydroxy-6,15-bis(trifluoromethyl)-19-oxa-3,4,13,18-tetrazatricyclo[12.3.1.12,5]nonadeca-1(18),2,4,14,16-pentaen-12-yl]-pyrrolidin-1-yl-methanone], for which the EC50 is more than 1000 nM.

Take `CC1(C)CCCCC[C@](O)(C(F)(F)F)C2=NN=C(O2)c2nc(c(C(F)(F)F)cc2N)N1` [Compound 163, (6R)-17-amino-12,12-dimethyl-6,15-bis(trifluoromethyl)-19-oxa-3,4,13,18-tetrazatricyclo[12.3.1.12,5]nonadeca-1(18),2,4,14,16-pentaen-6-ol]: the EC50 is less than 500 nM.

Turning to `CC1(C)CCCCC[C@@](O)(C(F)(F)F)C2=NN=C(O2)c2nc(c(C(F)(F)F)cc2N)N1` [Compound 165, (6S)-17-Amino-12,12-dimethyl-6,15-bis(trifluoromethyl)-19-oxa-3,4,13,18-tetrazatricyclo[12.3.1.12,5]nonadeca-1(18),2,4,14,16-pentaen-6-ol], the EC50 is more than 1000 nM.

Consider `Nc1cc(C(F)(F)F)c2nc1-c1nnc(o1)[C@@](O)(C(F)(F)F)CCCCCC(c1ccccn1)N2` (stereo partly drawn) [Compound 166, (6R)-17-amino-12-(2-pyridyl)-6,15-bis(trifluoromethyl)-19-oxa-3,4,13,18-tetrazatricyclo[12.3.1.12,5]nonadeca-1(18),2,4,14,16-pentaen-6-ol], for which the EC50 was less than 500 nM.

For `Nc1cc(C(F)(F)F)c2nc1-c1nnc(o1)[C@@](O)(C(F)(F)F)CCCCCC1(CCC1)N2` [Compound 173, (6R)-17-amino-6,15-bis(trifluoromethyl)spiro[19-oxa-3,4,13,18-tetrazatricyclo[12.3.1.12,5]nonadeca-1(18),2,4,14,16-pentaene-12,1′-cyclobutane]-6-ol], the EC50 is less than 500 nM.

For `[2H]C([2H])([2H])C1(C([2H])([2H])[2H])CCCCC[C@](O)(C(F)(F)F)C2=NN=C(O2)c2nc(c(C(F)(F)F)cc2N)N1` [Compound 176, (6R)-17-amino-12,12-bis(trideuteriomethyl)-6,15-bis(trifluoromethyl)-19-oxa-3,4,13,18-tetrazatricyclo[12.3.1.12,5]nonadeca-1(18),2,4,14,16-pentaen-6-ol], the EC50 was less than 500 nM.

Take `Nc1cc(C(F)(F)F)c2nc1-c1nnc(o1)[C@@](O)(C(F)(F)F)CCCCCC1(CCCC1)N2` [Compound 177, (6R)-17-amino-6,15-bis(trifluoromethyl)spiro[19-oxa-3,4,13,18-tetrazatricyclo[12.3.1.12,5]nonadeca-1(18),2,4,14,16-pentaene-12,1′-cyclopentane]-6-ol]: the EC50 is less than 500 nM.
